# How the values were obtained:
# Format in all cases: in vivo
# [1] = system: Setaria viridis; experiment: Preemergence herbicidal activity (Example 67); design: herbicide rating, SETVI: scale not given here; conditions: pre, 800 g/ha; for herbicide rating, SETVI: rated about 1-3 weeks after treatment
# Experimental: (§1) Herbicidal evaluation of compounds of the invention is conducted on the following plant species:
# (§2) The soil is a prepared horticultural substrate containing 30% peat, 20% volcanic clay, 30% bark residues and 20% polyamide/styromull in a 1:3 mixture with loamy sand. Test solutions are prepared by dissolving the test compound in acetone containing 0.5% of an alkylphenol/ethylene oxide condensate under the trademark, TRITON® X-155, and diluting with water as needed. The test solutions are applied as a spray to the 3-6 week old seedling plants at dose rates corresponding to 800g/ha in a volume equivalent to 400 L/ha. A pneumatic spraying device employing a Teejet nozzle SS 8002E operating at 3 bar is used for a predetermined time. After spraying, the treated plants are placed on greenhouse benches and cared for in a manner commensurate with conventional greenhouse practice. After 10-21 days, the treated plants are evaluated and rated according to the rating system provided below.
# (§3) The soil surface is then sprayed with test solutions as described in the postemergence evaluation hereinabove. After spraying, the treated cups are placed on greenhouse benches and cared for in the manner commensurate with conventional greenhouse practice. About 1-3 weeks after treatment the cups are evaluated and rated according to the rating system provided hereinabove.
# [2] = system: Alopecurus myosuroides; experiment: Preemergence herbicidal activity (Example 67); design: herbicide rating, ALOMY: scale not given here; conditions: pre, 800 g/ha; for herbicide rating, ALOMY: rated about 1-3 weeks after treatment
# Experimental: as §1, §2, §3
# [3] = system: Hordeum vulgare; experiment: Postemergence herbicidal activity (Example 67); conditions: pos, 800 g/ha; for herbicide rating, HORVW: rated after 10-21 days
# Experimental: as §1, §2
# [4] = system: Zea mays; experiment: Postemergence herbicidal activity (Example 67); conditions: pos, 800 g/ha; for herbicide rating, ZEAMX: rated after 10-21 days
# Experimental: as §1, §2
# [5] = system: Amaranthus retroflexus; experiment: Postemergence herbicidal activity (Example 67); conditions: pos, 800 g/ha; for herbicide rating, AMARE: rated after 10-21 days
# Experimental: as §1, §2
# [6] = system: Chenopodium album; experiment: Postemergence herbicidal activity (Example 67); conditions: pos, 800 g/ha; for herbicide rating, CHEAL: rated after 10-21 days
# Experimental: as §1, §2
# [7] = system: Setaria viridis; experiment: Postemergence herbicidal activity (Example 67); conditions: pos, 800 g/ha; for herbicide rating, SETVI: rated after 10-21 days
# Experimental: as §1, §2
# [8] = system: Galium aparine; experiment: Postemergence herbicidal activity (Example 67); conditions: pos, 800 g/ha; for herbicide rating, GALAP: rated after 10-21 days
# Experimental: as §1, §2
# [9] = system: Alopecurus myosuroides; experiment: Postemergence herbicidal activity (Example 67); conditions: pos, 800 g/ha; for herbicide rating, ALOMY: rated after 10-21 days
# Experimental: as §1, §2
# [10] = system: Abutilon theophrasti; experiment: Postemergence herbicidal activity (Example 67); conditions: pos, 800 g/ha; for herbicide rating, ABUTH: rated after 10-21 days
# Experimental: as §1, §2
# [11] = system: Ipomoea hederacea; experiment: Postemergence herbicidal activity (Example 67); conditions: pos, 800 g/ha; for herbicide rating, IPOHE: rated after 10-21 days
# Experimental: as §1, §2
# [12] = system: Triticum aestivum; experiment: Postemergence herbicidal activity (Example 67); conditions: pos, 800 g/ha; for herbicide rating, TRZAW: rated after 10-21 days
# Experimental: as §1, §2
# [13] = system: Helianthus annuus; experiment: Postemergence herbicidal activity (Example 67); conditions: pos, 800 g/ha; for herbicide rating, HELAN: rated after 10-21 days
# Experimental: as §1, §2
# [14] = system: Veronica persica; experiment: Postemergence herbicidal activity (Example 67); conditions: pos, 800 g/ha; for herbicide rating, VERPE: rated after 10-21 days
# Experimental: as §1, §2
# [15] = system: Triticum aestivum; experiment: Preemergence herbicidal activity (Example 67); design: herbicide rating, TRZAW: scale not given here; conditions: pre, 800 g/ha; for herbicide rating, TRZAW: rated about 1-3 weeks after treatment
# Experimental: as §1, §2, §3
# [16] = system: Zea mays; experiment: Preemergence herbicidal activity (Example 67); conditions: pre, 800 g/ha; for herbicide rating, ZEAMX: rated about 1-3 weeks after treatment
# Experimental: as §1, §2, §3
# [17] = system: Amaranthus retroflexus; experiment: Preemergence herbicidal activity (Example 67); conditions: pre, 800 g/ha; for herbicide rating, AMARE: rated about 1-3 weeks after treatment
# Experimental: as §1, §2, §3
# [18] = system: Chenopodium album; experiment: Preemergence herbicidal activity (Example 67); conditions: pre, 800 g/ha; for herbicide rating, CHEAL: rated about 1-3 weeks after treatment
# Experimental: as §1, §2, §3
# [19] = system: Galium aparine; experiment: Preemergence herbicidal activity (Example 67); conditions: pre, 800 g/ha; for herbicide rating, GALAP: rated about 1-3 weeks after treatment
# Experimental: as §1, §2, §3
# [20] = system: Abutilon theophrasti; experiment: Preemergence herbicidal activity (Example 67); conditions: pre, 800 g/ha; for herbicide rating, ABUTH: rated about 1-3 weeks after treatment
# Experimental: as §1, §2, §3
# [21] = system: Ipomoea hederacea; experiment: Preemergence herbicidal activity (Example 67); conditions: pre, 800 g/ha; for herbicide rating, IPOHE: rated about 1-3 weeks after treatment
# Experimental: as §1, §2, §3
# [22] = system: Helianthus annuus; experiment: Preemergence herbicidal activity (Example 67); conditions: pre, 800 g/ha; for herbicide rating, HELAN: rated about 1-3 weeks after treatment
# Experimental: as §1, §2, §3
# [23] = system: Veronica persica; experiment: Preemergence herbicidal activity (Example 67); conditions: pre, 800 g/ha; for herbicide rating, VERPE: rated about 1-3 weeks after treatment
# Experimental: as §1, §2, §3
# [24] = system: Hordeum vulgare; experiment: Preemergence herbicidal activity (Example 67); design: herbicide rating, HORVW: scale not given here; conditions: pre, 800 g/ha; for herbicide rating, HORVW: rated about 1-3 weeks after treatment
# Experimental: as §1, §2, §3
smiles,measurement,setting,value
O=C(NC1CCCc2ccccc21)c1nc(-c2ccccc2F)ns1 (racemic) [Example 53],SET VI rating,[1],0
same,ALO MY rating,[2],0
same,HOR VW rating,[3],2 (6-15%)
same,ZEA MX rating,[4],0
same,AMA RE rating,[5],0
same,CHE AL rating,[6],0
same,SET VI rating,[7],5 (45-64%)
same,GAL AP rating,[8],2 (6-15%)
same,ALO MY rating,[9],1 (1-5%)
same,ABU TH rating,[10],0
same,IPO HE rating,[11],2 (6-15%)
same,TRZ AW rating,[12],2 (6-15%)
same,HEL AN rating,[13],0
same,VER PE rating,[14],0
same,TRZ AW rating,[15],1 (1-5%)
same,ZEA MX rating,[16],0
same,AMA RE rating,[17],3 (16-29%)
same,CHE AL rating,[18],0
same,GAL AP rating,[19],0
same,ABU TH rating,[20],0
same,IPO HE rating,[21],0
same,HEL AN rating,[22],0
same,VER PE rating,[23],6 (65-79%)
same,HOR VW rating,[24],0
COCCc1nsc(C(=O)NC(C)c2cccs2)n1 (racemic) [Example 33],"herbicide rating, SETVI",[1],0
same,"herbicide rating, ALOMY",[2],0
same,"herbicide rating, HORVW",[3],3 (16-29%)
same,"herbicide rating, ZEAMX",[4],0
same,"herbicide rating, AMARE",[5],0
same,"herbicide rating, CHEAL",[6],2 (6-15%)
same,"herbicide rating, SETVI",[7],6 (65-79%)
same,"herbicide rating, GALAP",[8],3 (16-29%)
same,"herbicide rating, ALOMY",[9],3 (16-29%)
same,"herbicide rating, ABUTH",[10],2 (6-15%)
same,"herbicide rating, IPOHE",[11],4 (30-44%)
same,"herbicide rating, TRZAW",[12],2 (6-15%)
same,"herbicide rating, HELAN",[13],4 (30-44%)
same,"herbicide rating, VERPE",[14],0
same,"herbicide rating, TRZAW",[15],0
same,"herbicide rating, ZEAMX",[16],0
same,"herbicide rating, AMARE",[17],0
same,"herbicide rating, CHEAL",[18],2 (6-15%)
same,"herbicide rating, GALAP",[19],0
same,"herbicide rating, ABUTH",[20],0
same,"herbicide rating, IPOHE",[21],0
same,"herbicide rating, HELAN",[22],0
same,"herbicide rating, VERPE",[23],5 (45-64%)
same,"herbicide rating, HORVW",[24],0
CC(NC(=O)c1nc(C=Cc2ccccc2)ns1)c1cccs1 (racemic) [Example 29],"herbicide rating, SETVI",[1],0
same,"herbicide rating, ALOMY",[2],0
same,"herbicide rating, HORVW",[3],0
same,"herbicide rating, ZEAMX",[4],0
same,"herbicide rating, AMARE",[5],1 (1-5%)
same,"herbicide rating, CHEAL",[6],3 (16-29%)
same,"herbicide rating, SETVI",[7],4 (30-44%)
same,"herbicide rating, GALAP",[8],1 (1-5%)
same,"herbicide rating, ALOMY",[9],2 (6-15%)
same,"herbicide rating, ABUTH",[10],1 (1-5%)
same,"herbicide rating, IPOHE",[11],4 (30-44%)
same,"herbicide rating, TRZAW",[12],0
same,"herbicide rating, HELAN",[13],4 (30-44%)
same,"herbicide rating, VERPE",[14],0
same,"herbicide rating, TRZAW",[15],0
same,"herbicide rating, ZEAMX",[16],0
same,"herbicide rating, AMARE",[17],0
same,"herbicide rating, CHEAL",[18],4 (30-44%)
same,"herbicide rating, GALAP",[19],0
same,"herbicide rating, ABUTH",[20],0
same,"herbicide rating, IPOHE",[21],0
same,"herbicide rating, HELAN",[22],0
same,"herbicide rating, VERPE",[23],0
same,"herbicide rating, HORVW",[24],0
"C[C@H](NC(=O)c1nc(-c2cccc(F)c2)ns1)c1ccccc1 [Example 45, (S)-3-(3-Fluorophenyl)-[1,2,4]thiadiazole-5-carboxylic acid, 1-(phenylethyl)amide]",SET VI rating,[1],0
same,ALO MY rating,[2],3 (16-29%)
same,HOR VW rating,[3],4 (30-44%)
same,ZEA MX rating,[4],4 (30-44%)
same,AMA RE rating,[5],3 (16-29%)
same,CHE AL rating,[6],4 (30-44%)
same,SET VI rating,[7],6 (65-79%)
same,GAL AP rating,[8],6 (65-79%)
same,ALO MY rating,[9],4 (30-44%)
same,ABU TH rating,[10],8 (91-99%)
same,IPO HE rating,[11],8 (91-99%)
same,TRZ AW rating,[12],3 (16-29%)
same,HEL AN rating,[13],8 (91-99%)
same,VER PE rating,[14],7 (80-90%)
same,TRZ AW rating,[15],0
same,ZEA MX rating,[16],0
same,AMA RE rating,[17],0
same,CHE AL rating,[18],0
same,GAL AP rating,[19],0
same,ABU TH rating,[20],0
same,IPO HE rating,[21],0
same,HEL AN rating,[22],0
same,VER PE rating,[23],8 (91-99%)
same,HOR VW rating,[24],0

# Reference: EP0726261A1, “Herbidical 1,2,4 thiadiazoles” (American Cyanamid Company, priority 1995, dated 1996)
